# Measurements reported in patent publication EP0908457B1, “3-(1,2-benzisothiazol- and isoxazol-5-Y1)-2,4(1H,3H)-pyrimidinedione or thione and 3-(1,2-benzisothiazol- and isoxazol-5-y1)-4(3H)-pyrimidinone or thione herbicidal agents” (BASF AKTIENGESELLSCHAFT, priority 1997, dated 1999).
# How the values were obtained:
# Cyperus iria [1] = assay: Postemergence weed control under flooded paddy conditions, CYPIR (Rice Flatsedge); format: in vivo; settings: rated three to four weeks after treatment
# [2] = system: Monochoria vaginalis, Presl.; assay: Preemergence weed control under flooded paddy conditions, MOOVA (Monochoria); format: in vivo; settings: preemergence, flooded paddy, rated three to four weeks after treatment; also: meaning of each grade not given here
# [3] = system: Cyperus serotinus, Rottb.; assay: Preemergence weed control under flooded paddy conditions, CYPSE (Flatsedge); format: in vivo; settings: preemergence, rated three to four weeks after treatment; also: meaning of each grade not given here
# [4] = system: Oryza sativa, (L.) Tebonnet; assay: Rice tolerance to post-transplant applications under flooded paddy conditions (Example 187), ORYSAT (Rice, Tebonnet); settings: rated three to four weeks after treatment
# [5] = system: Monochoria vaginalis, Presl.; assay: Postemergence weed control under flooded paddy conditions, MOOVA (Monochoria); format: in vivo; settings: rated three to four weeks after treatment
# [6] = system: Oryza sativa, (L.) Tebonnet; assay: Rice tolerance to post-transplant applications under flooded paddy conditions (Example 188), ORYSAT (Rice, Tebonnet); settings: rated three to four weeks after treatment
# [7] = system: Echinochloa oryzoides (Ard.) Fritsch.; assay: Preemergence weed control under flooded paddy conditions, ECHORC (Watergrass (Calif.)); format: in vivo; settings: preemergence, flooded paddy, rated three to four weeks after treatment; also: meaning of each grade not given here
# Sagittaria pygmaea, L. [8] = assay: Postemergence weed control under flooded paddy conditions, SAGPY (Arrowhead (Pygmaea)); format: in vivo; settings: rated three to four weeks after treatment
# Sagittaria pygmaea, L. [9] = assay: Preemergence weed control under flooded paddy conditions, SAGPY (Arrowhead (Pygmaea)); format: in vivo; settings: preemergence, flooded paddy, rated three to four weeks after treatment; also: meaning of each grade not given here
# Cyperus iria [10] = assay: Preemergence weed control under flooded paddy conditions, CYPIR (Rice Flatsedge); format: in vivo; settings: preemergence, flooded paddy, rated three to four weeks after treatment; also: meaning of each grade not given here
# [11] = system: Cyperus serotinus, Rottb.; assay: Postemergence weed control under flooded paddy conditions, CYPSE (Flatsedge); format: in vivo; settings: rated three to four weeks after treatment
# [12] = system: Echinochloa oryzoides (Ard.) Fritsch.; assay: Postemergence weed control under flooded paddy conditions, ECHORC (Watergrass (Calif.)); format: in vivo; settings: rated three to four weeks after treatment
smiles,measurement,setting,value
"Cn1c(C(F)(F)F)cc(=O)n(-c2ccc3snc(-c4ccccc4)c3c2)c1=O [Example 4, 1-Methyl-3-(3-phenyl-1,2-benzisothiazol-5-yl)-6-(trifluoromethyl)-2,4(1H,3H)-pyrimidinedione]","herbicidal effect rating, CYPIR",Cyperus iria [1]; Rate 0.0313 kg/ha,8.0
same,"herbicidal effect rating, CYPIR",Cyperus iria [1]; Rate 0.0625 kg/ha,9.0
same,"herbicidal effect rating, CYPIR",Cyperus iria [1]; Rate 0.1250 kg/ha,9.0
same,"herbicidal effect rating, CYPIR",Cyperus iria [1]; Rate 0.2500 kg/ha,9.0
same,"herbicidal effect rating, CYPIR",Cyperus iria [1]; Rate 0.5000 kg/ha,9.0
same,"herbicidal effect rating, MOOVA",[2]; 0.0313 kg/ha,9.0
same,"herbicidal effect rating, MOOVA",[2]; 0.0625 kg/ha,9.0
same,"herbicidal effect rating, MOOVA",[2]; 0.1250 kg/ha,9.0
same,"herbicidal effect rating, MOOVA",[2]; 0.2500 kg/ha,9.0
same,"herbicidal effect rating, MOOVA",[2]; 0.5000 kg/ha,9.0
same,"herbicidal effect rating, CYPSE",[3]; 0.0625 kg/ha,2.0
same,"herbicidal effect rating, CYPSE",[3]; 0.1250 kg/ha,9.0
same,"herbicidal effect rating, CYPSE",[3]; 0.2500 kg/ha,9.0
same,"herbicidal effect rating, CYPSE",[3]; 0.5000 kg/ha,9.0
same,"herbicidal effect rating, ORYSAT (rice tolerance)",[4]; 0.0313 kg/ha,4.0
same,"herbicidal effect rating, ORYSAT (rice tolerance)",[4]; 0.0625 kg/ha,7.0
same,"herbicidal effect rating, ORYSAT (rice tolerance)",[4]; 0.1250 kg/ha,7.0
same,"herbicidal effect rating, ORYSAT (rice tolerance)",[4]; 0.2500 kg/ha,8.0
same,"herbicidal effect rating, ORYSAT (rice tolerance)",[4]; 0.5000 kg/ha,8.0
same,"herbicidal effect rating, MOOVA",[5]; Rate 0.0313 kg/ha,8.0
same,"herbicidal effect rating, MOOVA",[5]; Rate 0.0625 kg/ha,9.0
same,"herbicidal effect rating, MOOVA",[5]; Rate 0.1250 kg/ha,9.0
same,"herbicidal effect rating, MOOVA",[5]; Rate 0.2500 kg/ha,9.0
same,"herbicidal effect rating, MOOVA",[5]; Rate 0.5000 kg/ha,9.0
same,"herbicidal effect rating, ORYSAT (rice tolerance)",[6]; Rate 0.0313 kg/ha,3.0
same,"herbicidal effect rating, ORYSAT (rice tolerance)",[6]; Rate 0.0625 kg/ha,4.0
same,"herbicidal effect rating, ORYSAT (rice tolerance)",[6]; Rate 0.1250 kg/ha,7.0
same,"herbicidal effect rating, ORYSAT (rice tolerance)",[6]; Rate 0.2500 kg/ha,8.0
same,"herbicidal effect rating, ORYSAT (rice tolerance)",[6]; Rate 0.5000 kg/ha,8.0
same,"herbicidal effect rating, ECHORC",[7]; 0.0313 kg/ha,9.0
same,"herbicidal effect rating, ECHORC",[7]; 0.0625 kg/ha,9.0
same,"herbicidal effect rating, ECHORC",[7]; 0.1250 kg/ha,9.0
same,"herbicidal effect rating, ECHORC",[7]; 0.2500 kg/ha,9.0
same,"herbicidal effect rating, ECHORC",[7]; 0.5000 kg/ha,9.0
same,"herbicidal effect rating, SAGPY","Sagittaria pygmaea, L. [8]; Rate 0.0313 kg/ha",3.0
same,"herbicidal effect rating, SAGPY","Sagittaria pygmaea, L. [8]; Rate 0.0625 kg/ha",2.0
same,"herbicidal effect rating, SAGPY","Sagittaria pygmaea, L. [8]; Rate 0.1250 kg/ha",6.0
same,"herbicidal effect rating, SAGPY","Sagittaria pygmaea, L. [8]; Rate 0.2500 kg/ha",9.0
same,"herbicidal effect rating, SAGPY","Sagittaria pygmaea, L. [8]; Rate 0.5000 kg/ha",9.0
same,"herbicidal effect rating, SAGPY","Sagittaria pygmaea, L. [9]; 0.0313 kg/ha",2.0
same,"herbicidal effect rating, SAGPY","Sagittaria pygmaea, L. [9]; 0.0625 kg/ha",2.0
same,"herbicidal effect rating, SAGPY","Sagittaria pygmaea, L. [9]; 0.1250 kg/ha",6.0
same,"herbicidal effect rating, SAGPY","Sagittaria pygmaea, L. [9]; 0.2500 kg/ha",9.0
same,"herbicidal effect rating, SAGPY","Sagittaria pygmaea, L. [9]; 0.5000 kg/ha",9.0
same,"herbicidal effect rating, CYPIR",Cyperus iria [10]; 0.0313 kg/ha,9.0
same,"herbicidal effect rating, CYPIR",Cyperus iria [10]; 0.0625 kg/ha,9.0
same,"herbicidal effect rating, CYPIR",Cyperus iria [10]; 0.1250 kg/ha,9.0
same,"herbicidal effect rating, CYPIR",Cyperus iria [10]; 0.2500 kg/ha,9.0
same,"herbicidal effect rating, CYPIR",Cyperus iria [10]; 0.5000 kg/ha,9.0
same,"herbicidal effect rating, CYPSE",[11]; Rate 0.0313 kg/ha,2.0
same,"herbicidal effect rating, CYPSE",[11]; Rate 0.0625 kg/ha,4.0
same,"herbicidal effect rating, CYPSE",[11]; Rate 0.1250 kg/ha,7.0
same,"herbicidal effect rating, CYPSE",[11]; Rate 0.2500 kg/ha,7.0
same,"herbicidal effect rating, CYPSE",[11]; Rate 0.5000 kg/ha,9.0
same,"herbicidal effect rating, ECHORC",[12]; Rate 0.0313 kg/ha,7.0
same,"herbicidal effect rating, ECHORC",[12]; Rate 0.0625 kg/ha,9.0
same,"herbicidal effect rating, ECHORC",[12]; Rate 0.1250 kg/ha,9.0
same,"herbicidal effect rating, ECHORC",[12]; Rate 0.2500 kg/ha,9.0
same,"herbicidal effect rating, ECHORC",[12]; Rate 0.5000 kg/ha,9.0
"CCc1ccc(-c2nsc3ccc(-n4c(=O)cc(C(F)(F)F)n(C)c4=O)cc23)cc1 [Example 5, 3-[3-(p-Ethylphenyl)-1,2-benzisothiazol-5-yl]-1-methyl-6-(trifluoromethyl)-2,4(1H,3H)-pyrimidinedione]","herbicidal effect rating, CYPIR",Cyperus iria [1]; Rate 0.0313 kg/ha,9.0
same,"herbicidal effect rating, CYPIR",Cyperus iria [1]; Rate 0.0625 kg/ha,9.0
same,"herbicidal effect rating, CYPIR",Cyperus iria [1]; Rate 0.1250 kg/ha,9.0
same,"herbicidal effect rating, CYPIR",Cyperus iria [1]; Rate 0.2500 kg/ha,9.0
same,"herbicidal effect rating, CYPIR",Cyperus iria [1]; Rate 0.5000 kg/ha,9.0
same,"herbicidal effect rating, MOOVA",[2]; 0.0313 kg/ha,9.0
same,"herbicidal effect rating, MOOVA",[2]; 0.0625 kg/ha,9.0
same,"herbicidal effect rating, MOOVA",[2]; 0.1250 kg/ha,9.0
same,"herbicidal effect rating, MOOVA",[2]; 0.2500 kg/ha,9.0
same,"herbicidal effect rating, MOOVA",[2]; 0.5000 kg/ha,9.0
same,"herbicidal effect rating, CYPSE",[3]; 0.0313 kg/ha,0.0
same,"herbicidal effect rating, CYPSE",[3]; 0.0625 kg/ha,2.0
same,"herbicidal effect rating, CYPSE",[3]; 0.1250 kg/ha,6.0
same,"herbicidal effect rating, CYPSE",[3]; 0.2500 kg/ha,8.0
same,"herbicidal effect rating, CYPSE",[3]; 0.5000 kg/ha,7.0
same,"herbicidal effect rating, ORYSAT (rice tolerance)",[4]; 0.0313 kg/ha,2.0
same,"herbicidal effect rating, ORYSAT (rice tolerance)",[4]; 0.0625 kg/ha,3.0
same,"herbicidal effect rating, ORYSAT (rice tolerance)",[4]; 0.1250 kg/ha,4.0
same,"herbicidal effect rating, ORYSAT (rice tolerance)",[4]; 0.2500 kg/ha,5.0
same,"herbicidal effect rating, ORYSAT (rice tolerance)",[4]; 0.5000 kg/ha,7.0
same,"herbicidal effect rating, MOOVA",[5]; Rate 0.0313 kg/ha,9.0
same,"herbicidal effect rating, MOOVA",[5]; Rate 0.0625 kg/ha,9.0
same,"herbicidal effect rating, MOOVA",[5]; Rate 0.1250 kg/ha,9.0
same,"herbicidal effect rating, MOOVA",[5]; Rate 0.2500 kg/ha,9.0
same,"herbicidal effect rating, MOOVA",[5]; Rate 0.5000 kg/ha,9.0
same,"herbicidal effect rating, ORYSAT (rice tolerance)",[6]; Rate 0.0313 kg/ha,2.0
same,"herbicidal effect rating, ORYSAT (rice tolerance)",[6]; Rate 0.0625 kg/ha,2.0
same,"herbicidal effect rating, ORYSAT (rice tolerance)",[6]; Rate 0.1250 kg/ha,4.0
same,"herbicidal effect rating, ORYSAT (rice tolerance)",[6]; Rate 0.2500 kg/ha,6.0
same,"herbicidal effect rating, ORYSAT (rice tolerance)",[6]; Rate 0.5000 kg/ha,8.0
same,"herbicidal effect rating, ECHORC",[7]; 0.0313 kg/ha,9.0
same,"herbicidal effect rating, ECHORC",[7]; 0.0625 kg/ha,9.0
same,"herbicidal effect rating, ECHORC",[7]; 0.1250 kg/ha,9.0
same,"herbicidal effect rating, ECHORC",[7]; 0.2500 kg/ha,9.0
same,"herbicidal effect rating, ECHORC",[7]; 0.5000 kg/ha,9.0
same,"herbicidal effect rating, SAGPY","Sagittaria pygmaea, L. [8]; Rate 0.0313 kg/ha",2.0
same,"herbicidal effect rating, SAGPY","Sagittaria pygmaea, L. [8]; Rate 0.0625 kg/ha",2.0
same,"herbicidal effect rating, SAGPY","Sagittaria pygmaea, L. [8]; Rate 0.1250 kg/ha",4.0
same,"herbicidal effect rating, SAGPY","Sagittaria pygmaea, L. [8]; Rate 0.2500 kg/ha",6.0
same,"herbicidal effect rating, SAGPY","Sagittaria pygmaea, L. [8]; Rate 0.5000 kg/ha",8.0
same,"herbicidal effect rating, SAGPY","Sagittaria pygmaea, L. [9]; 0.0313 kg/ha",0.0
same,"herbicidal effect rating, SAGPY","Sagittaria pygmaea, L. [9]; 0.0625 kg/ha",0.0
same,"herbicidal effect rating, SAGPY","Sagittaria pygmaea, L. [9]; 0.1250 kg/ha",2.0
same,"herbicidal effect rating, SAGPY","Sagittaria pygmaea, L. [9]; 0.2500 kg/ha",7.0
same,"herbicidal effect rating, SAGPY","Sagittaria pygmaea, L. [9]; 0.5000 kg/ha",7.0
same,"herbicidal effect rating, CYPIR",Cyperus iria [10]; 0.0313 kg/ha,9.0
same,"herbicidal effect rating, CYPIR",Cyperus iria [10]; 0.0625 kg/ha,9.0
same,"herbicidal effect rating, CYPIR",Cyperus iria [10]; 0.1250 kg/ha,9.0
same,"herbicidal effect rating, CYPIR",Cyperus iria [10]; 0.2500 kg/ha,9.0
same,"herbicidal effect rating, CYPIR",Cyperus iria [10]; 0.5000 kg/ha,9.0
same,"herbicidal effect rating, CYPSE",[11]; Rate 0.0313 kg/ha,0.0
same,"herbicidal effect rating, CYPSE",[11]; Rate 0.0625 kg/ha,0.0
same,"herbicidal effect rating, CYPSE",[11]; Rate 0.1250 kg/ha,0.0
same,"herbicidal effect rating, CYPSE",[11]; Rate 0.2500 kg/ha,0.0
same,"herbicidal effect rating, CYPSE",[11]; Rate 0.5000 kg/ha,0.0
same,"herbicidal effect rating, ECHORC",[12]; Rate 0.0313 kg/ha,2.0
same,"herbicidal effect rating, ECHORC",[12]; Rate 0.0625 kg/ha,7.0
same,"herbicidal effect rating, ECHORC",[12]; Rate 0.1250 kg/ha,6.0
same,"herbicidal effect rating, ECHORC",[12]; Rate 0.2500 kg/ha,9.0
same,"herbicidal effect rating, ECHORC",[12]; Rate 0.5000 kg/ha,9.0
